The text below walks through data of paper PMC12228687, “Harnessing protein language model for structure-based discovery of highly efficient and robust PET hydrolases” (Nature Communications, 2025).

For orientation: Km means the substrate concentration at which the rate is half of its maximum.

The test deals with T1, FastPETase (mutant derived from IsPETase) (Pseudideonella sakaiensis, UniProt A0A0K8P6T7, S121E/D186H/R224Q/N233K/R280A, form not given).
T1 construct: gene ISF6_4831; engineered variant FastPETase; construct not described in the main text
The test is described as follows: p-nitrophenol release at […] nm, Michaelis-Menten nonlinear fit. The format is biochemical. The conditions noted are these: 10 mM potassium phosphate pH 8.0 (stock buffer), 50 °C, 3 min, 0.5 µg/mL enzyme, 0.2-1.8 mM pNPB.

T1 sequence (A0A0K8P6T7 28-290 S121E/D186H/R224Q/N233K/R280A, form open): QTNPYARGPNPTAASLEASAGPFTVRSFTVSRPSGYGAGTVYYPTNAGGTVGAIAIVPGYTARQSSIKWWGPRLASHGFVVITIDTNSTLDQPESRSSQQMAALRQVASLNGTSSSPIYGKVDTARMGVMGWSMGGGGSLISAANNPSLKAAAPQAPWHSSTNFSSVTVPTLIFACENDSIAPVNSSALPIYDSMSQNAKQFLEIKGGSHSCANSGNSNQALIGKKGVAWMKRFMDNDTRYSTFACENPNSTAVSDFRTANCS

For the compound `CCCC(=O)Oc1ccc([N+](=O)[O-])cc1` [p-nitrophenyl butyrate], the Km was 1570 ± 416 µM.
